According to patent US8686003B2, “Tissue non-specific alkaline phosphatase inhibitors and uses thereof for treating vascular calcification” (Sanford-Burnham Medical Research Institute, priority 2007, dated 2014):
Entries after “also recorded” stand apart in the source; their conditions may differ. Read-outs that look alike come from different tables or passages of the source.

Experiments:
human TNAP = target: T1, human TNAP (Homo sapiens, UniProt P05186); assay: Enzyme kinetic experiments, Ki and mechanism of TNAP inhibition; assay type: biochemical; details: for Ki: pNPP substrate
T1 construct: made in house; host or cells: COS-1 cells, transient expression; dialyzed serum-free conditioned medium
T1 sequence (P05186 18-502 limits assumed): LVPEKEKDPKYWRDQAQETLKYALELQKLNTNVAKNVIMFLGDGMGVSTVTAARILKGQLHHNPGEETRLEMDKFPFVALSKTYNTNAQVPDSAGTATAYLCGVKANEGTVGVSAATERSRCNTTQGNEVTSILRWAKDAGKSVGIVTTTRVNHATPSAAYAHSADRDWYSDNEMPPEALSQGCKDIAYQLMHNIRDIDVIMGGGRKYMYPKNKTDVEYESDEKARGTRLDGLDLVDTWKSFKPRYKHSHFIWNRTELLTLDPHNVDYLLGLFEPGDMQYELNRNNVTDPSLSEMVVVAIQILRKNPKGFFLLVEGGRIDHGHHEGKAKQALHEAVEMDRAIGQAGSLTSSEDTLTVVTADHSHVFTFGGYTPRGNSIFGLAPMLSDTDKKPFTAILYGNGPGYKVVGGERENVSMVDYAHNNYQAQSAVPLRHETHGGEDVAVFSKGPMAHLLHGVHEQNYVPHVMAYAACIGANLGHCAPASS
Description: Expression plasmids containing a secreted epitope-tagged TNAP, PLAP and IAP were transfected into COS-1 cells for transient expression using a standard electroporation method. Medium was replaced to Opti-MEM 24 hours later, and the serum free media containing secreted proteins were collected 60 hours after electroporation. Conditioned medium was dialyzed against TBS containing 1 mM MgCl2 ad 20 μM ZnCl2 (to remove phosphate) and filtrated with a 2 μm cellulose acetate filter.
[…] TNAP, PLAP and IAP activities were adjusted to an approximate ΔA405 nm, equivalent to 1, measured after 30 min. Residual AP activity in the presence of inhibitors was expressed as percentage of the control activity. To investigate the mechanism of inhibition, double reciprocal plots of enzyme activity (expressed as mA405 nm min^−1) vs. substrate concentration were constructed, in the presence of various concentrations of added inhibitors (0-30 μM). The y-axis intercepts of the 1/v vs. 1/[S] plots, were then plotted vs. [I] to graphically extract Ki values as the x-intercept in this plot. […] Inhibitors were further tested and sorted based on their kinetic properties at pH 7.4 using PPi, the relevant natural substrate of TNAP. […] Amounts of released phosphate were measured using the Biomol Green Reagent (Biomol Research Laboratories, Inc., Plymouth Meeting, Pa.).

[1] = system: endogenous pyrophosphatase activity in aortic rat rings; assay: PPi hydrolysis by whole aortas ex vivo; details: 30 μM; for PPi hydrolysis / % Inhibition: aortic rat rings ex vivo; for % Inhibition: inhibition of PPi hydrolysis
Description: Rats were sacrificed and aortas perfused with Hanks salt solution to remove blood. The aortas were then removed and, after the adventitia was dissected away, were cut into rings approximately 2 mm in length. Four rings were placed in 1 ml of DMEM without serum containing the compounds to be tested. After 90 min at 37° C., sodium PPi (final concentration 1 μM) and [^32P]Pi (final concentration 1 μCurie/ml) were added and 6 samples were removed over 4 hours. Pi was separated from PPi by adding 800 μl of 0.028 M ammonium molybdate in 0.75 M H2SO4 to the samples and extracting with 1600 μl of isobutanol and petroleum ether (4:1). ^32P was counted in the organic phase by Cerenkov radiation. Hydrolysis of PPi was linear over 4 hours and the rate was determined by linear regression.
Furthermore, to measure the degree of pyrophosphatase inhibition by the new TNAP inhibitors, an ex vivo organ culture system in whole aortas was used. For this analysis, rat rather than mouse aortas were selected, as they are larger and easier to dissect.

Enpp1−/− VSMCs = assay: In vitro calcification (mineralization) of VSMC cultures; assay type: cell-based, mouse; details: Enpp1−/− VSMC culture
Description: Vascular SMCs were isolated from explants using a collagenase digestion method and the smooth muscle phenotype was confirmed by RT-PCR analysis for smooth muscle α-actin. One mouse aorta provided on average, 5×10^5 cells. These cells were cultured (in triplicate) at a density of 3×10^4 cells/cm^2 using α-MEM supplemented with β-glycerophosphate (10 mM) and 50 μg/ml ascorbic acid for 3 weeks. To quantify calcium deposited in these cultures, either the o-cresolphthalein complexone method^(31) or the standard Alizarin Red method was used.

[2] = pH 7.5, 1 M Tris-HCl buffer, read-out: Ki (μM) @ pH 7.5
[3] = pH 9.8, 1 M DEA-HCl buffer, read-out: Ki (μM) @ pH 9.8

Row | Ki (human TNAP; [2]) [µM] | Ki (human TNAP; [3]) [µM] | potency at pH 7.5 compared with pH 9.8 (human TNAP) | potency relative to levamisole (human TNAP; Ki at physiological pH) | Structure (SMILES) | PPi hydrolysis [1] [nmol/g/min] | % Inhibition [1] [%] | effect of competitive inhibitor Pi on potency (human TNAP; pH 7.4, 0.1 mM pNPP, Na2HPO4 0-10 mM) | effect of PPi on degree of inhibition (human TNAP; pH 7.4, 0.1 mM pNPP, pyrophosphate 0-40 mM) | suppression of endogenous pyrophosphatase activity (ranking) ([1]; rat whole aortas ex vivo) | inhibition of mineralization (Enpp1−/− VSMCs)
1 | 6.4 ± 1.6 | 5.6 ± 1.6 | – | – | Cn1cnnc1SC(C(=O)c1ccccc1)c1ccccc1 (centres unmarked) | 0.269 ± 0.032 | 15.9 | – | – | – | –
2 | 33 ± 5.8 | 5.6 ± 0.7 | – | – | O=C(CSc1nnc[nH]1)NCCOc1ccccc1 | 0.249 ± 0.046 | 22.2 | – | – | – | –
3 | 2.8 ± 0.4 | 6.5 ± 1.4 | more potent at pH 7.5 than at pH 9.8 | about 10 fold | Cn1ccnc1Sc1nc(Nc2ccccc2)nc(Nc2ccccc2)n1 [compound 5804079] | 0.192 ± 0.041 | 39.9 | does not affect the potency; also recorded: not affected by the presence of the competitive inhibitor Pi | does not affect the degree of inhibition; also recorded: not affected by high concentrations of PPi | most effective | most inhibitory
4 | – | – | – | – | c1ccc([C@H]2CN3CCSC3=N2)cc1 [levamisole, (6S)-6-phenyl-2,3,5,6-tetrahydro-imidazo[2,1-b][1,3]thiazole, reference compound] | 0.252 ± 0.047 | 21.2 | – | – | – | –
